Experimental findings from patent US20020028809A1 (SUNTORY LIMITED, priority 1999, published 2002) are described below.

Test [1] addresses T1, α4β2 subtype of nicotinic acetylcholine receptors (Rattus norvegicus, UniProt P09483+P12390).
T1 construct: examined using rat brain membrane obtained from whole homogenized brain; from tissue; host or cells: whole brain of Fischer-344 male rats, membrane pellet
Put plainly: Binding assays at α4β2 subtype of nicotinic acetylcholine receptors ([3H]-cytisine, rat brain membrane). The text has this:
(§1) Methods for evaluating binding capabilities of the compounds at nicotinic acetylcholine receptors are different by subtypes of receptors. Binding capabilities of the compounds at α4β2 nicotinic acetylcholine receptors are examined using rat brain membrane obtained from whole homogenized brain, and determining the inhibiting rate of the compounds against [^3H]-cytisine binding to said brain membrane. Furthermore, the binding capabilities of the compounds at α1β1γδ nicotinic acetylcholine receptors are examined using homogenized rat muscle, and determining the inhibiting rate of the compounds against [^3H]-α-bungarotoxin binding to said muscle homogenate.
Binding assays at α4β2 Subtype of Nicotinic Acetylcholine Receptors
(1) Preparation of Rat Brain Membrane Containing α4β2 Subtype of Nicotinic Acetylcholine Receptors
Rats were housed in the breeding cage controlled of the room temperature at 23±1° C., and the humidity of 55±5% for 1 to 4 weeks. Rats (3 to 4 rats per a cage) were housed with lights on for 12 hours daily (from 7:00 to 19:00), and allowed free access to food and water.
Preparation of rat brain membrane containing α4β2 subtype of nicotinic acetylcholine receptors was performed as follow. That is, rat brains were isolated just after sacrificed by decapitation, washed with ice-cooled saline solution and then frozen at −80° C. with liquid nitrogen and stored till using. After thawing the frozen brain, the brain was homogenized in 10 volumes of ice-cooled buffer solution (50 mM of Tris-HCl, 120 mM of NaCl, 5 mM of KCl, 1 mM of MgCl2, 2mM of CaCl2; pH 7.4; 4° C.) using homogenizer (HG30, Hitachi Kohki Ltd.) for 30 seconds, and the homogenate were centrifuged under 1,000×G for 10 minutes at 4° C. The resulting supernatant was separated and the pellet was homogenized again with half volume of aforementioned prior buffer solution and centrifuged under the same conditions. Combined supernatant was further centrifuged under 40,000×G for 20 minutes at 4° C. The pellet was suspended in buffer solution and used for binding assays at receptors.
(2) Experiments of α4β2 Subtype of Nicotinic Acetylcholine Receptors Binding
Suspensions of membrane pellets containing 400-600 μg of protein were added to test tubes containing test compounds and [^3H]-cytisine (2 nM) in a final volume of 200 μl and incubated for 75 minutes in ice-cooled bath. The samples were isolated by vacuum filtration onto Whatman GF/B filters, which were prerinsed with 0.5% polyethylenimine just prior to sample filtration, using Brandel multi manifold cell harvester. The filters were rapidly washed with buffer solution (3×1 ml). The filters were counted in 3 ml of clearsol I (Nacalai Tesque Inc.).
Analyses of the experimental results were conducted using the Accufit Competition Program (Beckman Ltd.).

The target of test [2] is T2, α1β1γδ subtype of nicotinic acetylcholine receptors (Rattus norvegicus, UniProt P18916+P25108+P25109+P25110).
T2 construct: Native receptor, no construct: "Triton X100 (2% w/v) was added
T2 sequence (P25108 21-457): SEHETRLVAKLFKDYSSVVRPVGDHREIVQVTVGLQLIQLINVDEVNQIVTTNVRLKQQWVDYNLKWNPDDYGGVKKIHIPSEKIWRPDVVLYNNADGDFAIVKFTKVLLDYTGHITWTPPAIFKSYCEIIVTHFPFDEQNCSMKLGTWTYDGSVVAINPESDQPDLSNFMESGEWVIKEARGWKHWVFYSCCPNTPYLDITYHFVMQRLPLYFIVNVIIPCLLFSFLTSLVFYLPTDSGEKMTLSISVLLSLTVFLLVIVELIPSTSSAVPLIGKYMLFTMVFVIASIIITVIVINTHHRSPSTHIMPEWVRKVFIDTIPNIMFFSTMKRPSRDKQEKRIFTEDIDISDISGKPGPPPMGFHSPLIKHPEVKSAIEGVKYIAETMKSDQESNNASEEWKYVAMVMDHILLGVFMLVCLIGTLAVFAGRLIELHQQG
T2 sequence (P25110 22-517): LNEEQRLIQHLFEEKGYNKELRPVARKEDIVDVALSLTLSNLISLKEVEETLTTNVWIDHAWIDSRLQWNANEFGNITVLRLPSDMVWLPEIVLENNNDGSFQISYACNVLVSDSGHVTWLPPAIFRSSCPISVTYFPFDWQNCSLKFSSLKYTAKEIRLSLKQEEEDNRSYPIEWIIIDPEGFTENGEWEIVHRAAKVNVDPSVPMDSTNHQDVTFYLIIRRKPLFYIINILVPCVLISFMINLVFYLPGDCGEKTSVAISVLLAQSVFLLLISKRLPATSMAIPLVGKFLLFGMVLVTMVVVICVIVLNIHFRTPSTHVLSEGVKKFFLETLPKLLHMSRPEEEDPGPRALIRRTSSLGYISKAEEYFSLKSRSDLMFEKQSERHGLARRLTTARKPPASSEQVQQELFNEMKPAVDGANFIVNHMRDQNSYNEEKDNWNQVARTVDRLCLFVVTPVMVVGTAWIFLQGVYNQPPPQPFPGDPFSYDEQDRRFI
T2 sequence (P25109 24-501): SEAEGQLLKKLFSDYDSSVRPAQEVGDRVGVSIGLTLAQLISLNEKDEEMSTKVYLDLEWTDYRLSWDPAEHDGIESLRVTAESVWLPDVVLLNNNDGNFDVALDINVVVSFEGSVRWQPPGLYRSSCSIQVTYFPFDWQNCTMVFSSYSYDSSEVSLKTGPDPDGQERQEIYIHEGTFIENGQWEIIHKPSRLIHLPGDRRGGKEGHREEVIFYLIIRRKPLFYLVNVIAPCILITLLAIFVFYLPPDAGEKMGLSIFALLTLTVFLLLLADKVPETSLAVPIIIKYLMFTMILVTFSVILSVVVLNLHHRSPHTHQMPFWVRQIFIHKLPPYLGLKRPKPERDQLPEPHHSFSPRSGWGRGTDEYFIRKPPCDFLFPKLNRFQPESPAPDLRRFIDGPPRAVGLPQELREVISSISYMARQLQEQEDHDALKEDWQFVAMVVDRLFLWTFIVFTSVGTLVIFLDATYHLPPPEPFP
In words: Binding assays at α1β1γδ subtype of nicotinic acetylcholine receptors ([3H]-α-bungarotoxin, rat muscle extract). Conditions: for remaining activity at 100 µM / remaining activity at 1000 µM: read-out: control % of [3H]-α-Bgt binding.
From the text: as §1
Binding Assays at α1β1γδ Subtype of Nicotinic Acetylcholine Receptors
Affinity of the compounds of the present invention to α1βγδ subtype of nicotinic acetylcholine receptors was measured by the following method, which was modified method described by Garcha H. S., Thomas P., Spivak C.
(1) Preparation of Rat Skeletal Muscles Containing α1β1γδ Subtype of Nicotinic Acetylcholine Receptors
The substantially same animals described in the Biological Experiment 1 were used.
Isolation of α1β1γδ subtype of nicotinic acetylcholine receptors was performed as follow. That is, rat posterior skeletal muscles were isolated just after sacrificed by decapitation, washed with ice-cooled saline solution and then frozen at −80° C. with liquid nitrogen and stored till using. After thawing the frozen muscles, tissue was homogenized (40% w/v) with buffer solution [2.5 mM of sodium phosphate buffer (pH:7.2), 90 mM of NaCl, 2 mM of KCl, 1 mM of EDTA, 2 mM of benzamidine, 0.1 mM of benzethonium chloride, […], 0.01% of sodium azide] in Waring blender (Waring blender 34BL97; WARING PRODUCTS DIVISION DYNAMICS CORPORATION OF AMERICA) for 60 seconds. The homogenate were centrifuged under 20,000×G for 60 minutes at 4° C. The supernatant was separated and the resulting pellet was added to the same buffer (1.5 ml/g wet weight), and homogenized under the same conditions. Triton X100 (2% w/v) was added and the mixture was stirred for 3 hours at 4° C. The centrifugation at 100,000×G for 60 minutes at 4° C. yielded the rat muscle extract as supernatant. This was stored at 4° C. for up to 4 weeks, and used for binding assays at receptors.
(2) Experiments of α1β1γδSubtype of Nicotinic Acetylcholine Receptors Binding
Receptors binding experiments were performed as follow. That is, the extract of rat muscle containing 600-900 μg of protein was added to test tubes containing test compounds and incubated for 15 minutes at 37° C. Then, to this mixture was added 1 nM of [^3H]-α-bungarotoxin (α-Bgt) and further incubated for 2 hours. The samples were isolated by vacuum filtration onto Whatman GF/B filters, which were prerinsed with 0.5% polyethylenimine just prior to sample filtration, using Brandel multi manifold cell harvester. The filters were rapidly rinsed with washing solution (10 mM of KH2PO4, 150 mM of NaCl, pH 7.2, room temperature) (5×1 ml). The filters were counted in 3 ml of clearsol I (Nacalai Tesque Inc.). Determination of nonspecific binding was incubated in the presence of 1 μM α-Bgt.
In the receptor binding experiments, said buffer solution was added for adjusting the final concentration of BSA to be 0.05%.
Analyses of the experimental results were conducted by the same way as described in the Biological Experiment 1.

In test [3] the target is T3, human α4β2 subtype of nicotinic acetylcholine receptors (Homo sapiens, UniProt P17787+P43681).
T3 construct: expressed in transfected cells; host or cells: Xenopus laevis oocytes injected with 50 ng each of α4 and β2 cRNA (pSP64 polyA vector)
T3 sequence (P43681 29-627 limits assumed): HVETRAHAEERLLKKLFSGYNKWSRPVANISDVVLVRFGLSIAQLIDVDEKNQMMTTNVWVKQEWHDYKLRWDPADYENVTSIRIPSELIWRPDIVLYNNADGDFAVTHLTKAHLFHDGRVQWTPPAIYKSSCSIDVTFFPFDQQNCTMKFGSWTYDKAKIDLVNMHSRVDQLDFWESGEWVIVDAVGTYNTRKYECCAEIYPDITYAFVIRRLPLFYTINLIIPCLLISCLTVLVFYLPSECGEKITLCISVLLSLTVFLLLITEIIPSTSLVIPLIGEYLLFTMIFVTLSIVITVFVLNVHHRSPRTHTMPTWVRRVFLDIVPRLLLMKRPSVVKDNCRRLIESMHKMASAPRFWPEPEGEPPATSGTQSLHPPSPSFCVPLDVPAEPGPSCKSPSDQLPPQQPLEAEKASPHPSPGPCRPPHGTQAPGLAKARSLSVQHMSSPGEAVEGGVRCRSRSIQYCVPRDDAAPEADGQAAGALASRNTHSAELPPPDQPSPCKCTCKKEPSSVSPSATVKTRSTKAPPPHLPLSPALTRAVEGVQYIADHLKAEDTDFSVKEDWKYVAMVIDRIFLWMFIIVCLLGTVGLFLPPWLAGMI
T3 sequence (P17787 26-502): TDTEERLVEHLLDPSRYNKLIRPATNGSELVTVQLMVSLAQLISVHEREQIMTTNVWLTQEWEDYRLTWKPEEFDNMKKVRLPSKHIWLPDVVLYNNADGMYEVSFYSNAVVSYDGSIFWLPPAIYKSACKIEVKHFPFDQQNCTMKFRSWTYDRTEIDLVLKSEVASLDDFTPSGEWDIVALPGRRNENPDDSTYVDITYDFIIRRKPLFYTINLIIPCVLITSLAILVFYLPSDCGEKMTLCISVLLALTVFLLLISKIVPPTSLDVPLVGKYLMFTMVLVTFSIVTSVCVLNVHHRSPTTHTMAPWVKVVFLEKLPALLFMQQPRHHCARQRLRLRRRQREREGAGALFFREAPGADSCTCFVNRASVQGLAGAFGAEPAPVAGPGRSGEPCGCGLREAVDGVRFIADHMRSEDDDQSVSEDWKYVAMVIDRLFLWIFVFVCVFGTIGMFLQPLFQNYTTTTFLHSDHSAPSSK
Put plainly: Agonist activities at human α4β2 subtype of nicotinic acetylcholine receptors expressed in Xenopus oocytes (membrane potential holding method). The class given is cell-based. The following applies: for Emax at 100 µM: read-out: Agonist activity: control % by response at 100 μM of the test compound. On the procedure: Agonist effect in human α4β2 subtype of nicotinic acetylcholine receptors are examined by using human nicotinic acetylcholine receptors prepared in oocytes of Xenopus laevis, which is injected with cRNA from the corresponding cloning cDNA of human α4 and β2 subunits of nicotinic acetylcholine receptors, and to measure the expression of electric response by adding the test compounds to perfusion solution by means of membrane potential holding method.
Agonist Activities at Human α4β2 Subtype of Nicotinic Acetylcholine Receptors
(1) Preparation of cRNA of Human α4β2 Subtype of Nicotinic Acetylcholine Receptors
Obtained hnACh-R α4 cDNA and hnACh-R β2 cDNA were inserted to the cRNA expression vector (pSP64 polyA) having SP6 RNA promoter to construct hnACh-R α4/pSP64 polyA and hnACh-R β2/pSP64 polyA, respectively. After cutting from expression vector by restriction enzyme (EcoRI), transcription was performed by affecting SP6 RNA polymerase in the presence of cap analogues to obtain hnACh-R α4 cRNA and hnACh-R β2 cRNA, respectively.
(2) Expression of Human α4β2 Subtype Nicotinic Acetylcholine Receptors in Xenopus oocytes
Oocytes were purchased from Kitanihonseibutsukyohzai Co., Ltd., which were already enucleated from Xenopus laevis, and used in this experiment.
The oocytes were treated with collagenase (Sigma type I; 1 mg/ml) in calcium-free modified Birth's solution (88 mM of NaCl, 1 mM of KCl, 2.4 mM of NaHCO3, 0.82 mM of MgSO4, 15 mM of HEPES, pH 7.6) under gently stirring at room temperature for 90 minutes, and washed out the enzyme from the tissue. Then, oocytes were separated from ovarian follicle by tweezers, and isolated oocytes were placed in antibiotics containing modified Birth's solution (88 mM of NaCl, 1 mM of KCl, 2.4 mM of NaHCO3, 0.82 mM of MgSO4, 15 mM of HEPES, pH 7.6, and 0.1 v/v% of mixture solution containing of penicillin and streptomycin for incubation; Sigma Co.). […] In oocytes, heterogeneous quintuple [(α4)2(β2)3] was composed by translation of injected cRNAs, and ion channel receptors were constructed on cell membrane.
(3) Agonist Activities at Human α4β2 Subtype of Nicotinic Acetylcholine Receptors
Recordings of response at human α4β2 subtype of nicotinic acetylcholine receptors by means of membrane potential holding method were performed as follow. […] Test compounds were added to the perfusion solution, and recorded the peak strength of induced inward current. In order to normalize the response of test compounds, the response with acetylcholine (Ach) were recorded before and after application of the test compounds. Generally in the oocytes just after isolated, the response of intrinsic muscarinic acetylcholine receptors, which is inward electric current caused by activation of calcium dependence chloride ion channels with increase of the intracellular calcium concentration by stimulation of receptors, is observed. […] Therefore, the responses observed in oocytes with injection of hnACh-R α4 cRNA and hnACh-R β2 cRNA, i.e., the inward current induced by the intracellular influx of sodium ion according to the stimulation of receptors, would be the freshly observed responses of human α4β2 subtype nicotinic acetylcholine receptors.

SMILES strings stand for the structures.

T1 sequence (P09483 31-630): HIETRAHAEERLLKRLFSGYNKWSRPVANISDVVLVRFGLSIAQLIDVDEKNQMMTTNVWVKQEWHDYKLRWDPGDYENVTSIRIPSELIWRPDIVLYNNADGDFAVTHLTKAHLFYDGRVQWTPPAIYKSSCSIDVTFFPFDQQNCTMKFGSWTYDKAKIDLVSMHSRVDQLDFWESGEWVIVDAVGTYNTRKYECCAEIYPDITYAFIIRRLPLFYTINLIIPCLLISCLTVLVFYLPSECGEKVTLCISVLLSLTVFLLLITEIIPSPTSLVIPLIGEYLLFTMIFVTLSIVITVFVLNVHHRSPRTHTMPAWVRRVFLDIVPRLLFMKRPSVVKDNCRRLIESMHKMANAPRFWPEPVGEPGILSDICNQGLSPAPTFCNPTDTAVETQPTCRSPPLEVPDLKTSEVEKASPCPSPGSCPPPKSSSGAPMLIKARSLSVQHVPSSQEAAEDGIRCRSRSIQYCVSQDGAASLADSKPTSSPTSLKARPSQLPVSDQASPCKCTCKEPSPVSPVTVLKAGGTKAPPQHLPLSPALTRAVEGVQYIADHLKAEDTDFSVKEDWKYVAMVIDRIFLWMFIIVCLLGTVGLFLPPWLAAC
T1 sequence (P12390 25-500): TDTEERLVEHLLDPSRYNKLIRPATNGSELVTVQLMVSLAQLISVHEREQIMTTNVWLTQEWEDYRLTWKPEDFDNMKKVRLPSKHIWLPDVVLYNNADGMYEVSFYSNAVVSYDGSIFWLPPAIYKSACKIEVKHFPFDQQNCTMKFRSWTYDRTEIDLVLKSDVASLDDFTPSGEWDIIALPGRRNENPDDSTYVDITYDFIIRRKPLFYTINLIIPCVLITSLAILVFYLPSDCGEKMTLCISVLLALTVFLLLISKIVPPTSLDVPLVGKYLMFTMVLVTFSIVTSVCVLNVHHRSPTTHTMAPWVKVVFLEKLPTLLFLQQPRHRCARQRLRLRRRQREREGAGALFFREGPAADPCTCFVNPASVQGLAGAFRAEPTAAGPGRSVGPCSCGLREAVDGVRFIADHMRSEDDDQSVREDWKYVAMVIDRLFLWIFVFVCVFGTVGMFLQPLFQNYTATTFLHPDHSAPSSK

For `NC1=NCCCN1Cc1ccc(Cl)nc1` [Compound 29, 1-(6-Chloro-3-pyridyl)methyl-2-imino-1,2,3,4,5,6-hexahydropyrimidine], the inhibitory constant (Ki) in test [1] turned out to be 0.25 nM; in test [2], 7.02 µM. In test [3], this compound displayed an EC50 of 0.5 µM.

For `N=C1OCCN1Cc1ccc(Cl)nc1` [Compound 28, 3-(6-chloro-3-pyridyl)methyl-2-iminooxazolidine], the Ki in test [1] is 2.77 nM; in test [2] it was 39.8 µM. For the same compound, in test [3], a half-maximal response (EC50) required 15.5 µM.

Regarding `Nc1nccn1Cc1cnc(Cl)s1` [Compound 50, 2-amino-1-(2-chloro-5-thiazolyl)methylimidazole], the Ki in test [1] came to 27.1 nM; in test [2] it was 818 µM. Moreover, a half-maximal response in test [3] (EC50) required 92.4 µM.

On to `Cc1csc(=N)n1Cc1ccc(Br)nc1` [Compound 19, 3-(6-bromo-3-pyridyl)methyl-2-imino-4-methyl-2,3-dihydrothiazole], for which the inhibition constant (Ki) in test [1] came out at 10.5 nM; in test [2] it was 11.7 µM. In test [3], the Emax at 100 µM worked out at 3%.

On to `N=c1sccn1Cc1ccc([N+](=O)[O-])cc1` [Compound 62, 2-imino-3-(4-nitrobenzyl)-2,3-dihydrothiazole], for which the Ki in test [1] is 29.1 nM; in test [2] it was 79.8 µM. Also, it took 325 µM to reach a half-maximal effect in test [3] (EC50).

As for `N=c1sccn1Cc1ccc(Cl)cc1` [Compound 57, 3-(4-chlorobenzyl)-2-imino-2,3-dihydrothiazole], the inhibition constant Ki was 11.9 nM in test [1] and 13 µM in test [2]. In test [3], the Emax at 100 µM was 23%.

For the compound `Cc1ccc(Cn2ccnc2N)cn1` [Compound 56, 2-amino-i-(6-methyl-3-pyridyl)methylimidazole], the Ki in test [1] worked out at 165 nM; in test [2] it was 545 µM. The Emax at 100 µM in test [3] worked out at 11%.

As to `N=C1OCCCN1Cc1ccc(Cl)nc1` [Compound 16, 3-(6-chloro-3-pyridyl)methyl-2-imino-3,4,5,6-tetrahydro-2H-1,3-oxazine], in test [1], the affinity, expressed as Ki, was 0.65 nM. For the same compound, in test [2], the remaining activity at 100 µM came to 14% and the remaining activity at 1000 µM was -2%. In test [3], this compound gave a concentration giving a half-maximal response (EC50) of 1.5 µM.

As for `N=c1sccn1Cc1cccnc1` [Compound 1, 2-imino-3-(3-pyridyl)methyl-2,3-dihydrothiazole], the results for the inhibitory constant (Ki) in test [1] and in test [2] were 4.84 nM and 4.9 µM, respectively. The Emax at 100 µM in test [3] is 20%.

Regarding `N=c1ccc(Cl)nn1Cc1ccc(Cl)nc1` [Compound 6, 6-chloro-2-(6-chloro-3-pyridyl)methyl-3-imino-2,3-dihydropyridazine], the inhibition constant Ki in test [1] stood at 15 nM. Further, in test [2], the remaining activity at 100 µM was determined as 44% and the remaining activity at 1000 µM is 15%. In addition, it took 86 µM to reach a half-maximal effect in test [3] (EC50).

Regarding `Nc1nccn1Cc1c[nH]c2ncccc12` [Compound 59, 2-amino-i-(7-aza-3-indolyl)methylimidazole], the results for the inhibition constant (Ki) in test [1] and in test [2] were 50.2 nM and 1230 µM, respectively. Besides, the Emax at 100 µM in test [3] was determined as 21%.

For orientation: Ki means the dissociation constant of the complex between target and ligand, obtained from inhibition or displacement. A higher Ki goes with weaker binding. What is called EC50 is the midpoint of the concentration-response curve. Low values mean a more potent agent, high ones a less potent agent.
